Source: patent publication US6369057B1, “Quinoxalines, processes for their preparation and their use” (Aventis Pharma Deutschland GmbH, priority 1991, dated 2002)

Tests used:
HIV = experiment: Test of preparations against HIV in cell culture (T-cell culture assay); format: cell-based; settings: lowest concentration where no giant cells were observed, HIV-infected lymphocytes from donor blood, 3 days at 37° C.
Protocol: Test of Preparations Against HIV in Cell Culture
Complete medium additionally contains 20% fetal calf serum and 40 IU/ml recombinant interleukin 2.
Lymphocytes which have been isolated from fresh donor blood by means of Ficoll gradient centrifugation are cultured for 36 hours in complete medium with an addition of 2 μg/ml phytohemagglutinin (Wellcome) at 37° C. under 5% of CO2. After 10% of DMSO has been added, the cells are frozen at a density of 5 [formula]10^6 and stored in liquid nitrogen. For the test, the cells are defrosted, washed in RPMI medium and cultured for 3-4 days in the complete medium.
The test preparations were dissolved in DMSO at a concentration of 16.7 mg/ml and diluted in complete medium to 1 mg/ml.
0.4 ml of medium was introduced into 24-multiwell dishes. 0.1 ml of the dissolved preparation was added to the upper row of the dish, and, by transferring 0.1 ml portions, a geometric dilution series was established. Controls without preparation always contained 0.4 ml of complete medium containing 0.5% of DMSO. Lymphocyte cultures with a cell density of 5 [formula]10^5 cells/ml were infected by adding 1/50 volume supernatant from HIV-infected lymphocyte cultures. The titer of these culture supernatants was determined by end-point titration as 1-5 [formula]10^6 infectious units/ml. After 30 minutes' incubation at 37° C., the infected lymphocytes were removed by centrifugation and taken up in an equal volume of medium. From this cell suspension, 0.6 ml aliquots were transferred into all wells of the test plate. The mixtures were incubated for 3 days at 37° C.
The infected cell cultures were examined under the microscope for the presence of giant cells, which indicate active virus multiplication in the culture. The lowest concentration of preparation where no giant cells were observed was determined as inhibitory concentration against HIV. As a control, the supernatants from the culture plates were tested for the presence of HIV antigen with the aid of an HIV antigen test following the manufacturer's instructions (Organon).

[1] = target: T1, HIV reverse transcriptase (RT) (Human immunodeficiency virus type 1 group M subtype B, UniProt P03366); experiment: Assay for HIV reverse transcriptase inhibition (scintillation proximity assay); format: biochemical; settings: for Reverse Transcriptase Assay IC50: RT from HIV cloned in E. coli, SPA, 60 minutes (37° C.)
T1 construct: The enzyme RT (from HIV cloned in E. coli); purchased HT-Biotechnology Ltd, Cambridge, UK; host or cells: E. coli
Protocol: Assay of the Substances for HIV Reverse Transcriptase Inhibition
The activity of reverse transcriptase (RT) was determined with the aid of a scintillation proximity assay (SPA).
The reagent kit for the RT-SPA was obtained from Amersham/Buchler (Braunschweig).
The enzyme RT (from HIV cloned in E. coli) originated from HT-Biotechnology Ltd, Cambridge, UK.
The assay was carried out using the manufacturer's (Amersham) protocol manual, with the following modifications: bovine serum albumin was added to the assay buffer to give an end concentration of 0.5 mg/ml the assay was carried out in Eppendorf reaction vessels, using 100 μl volume per batch the manufacturer's RT concentrate (5000 U/ml) was diluted in Tris-HCl buffer 20 mM; pH 7.2; 30% of glycerol, to an activity of 15 U per ml the incubation time for the mixtures was 60 minutes (37° C.) after stopping the reaction and “developing” with the bead suspension, 130 μl of mixture were transferred to 4.5 ml of Tris-HCl buffer, 10 mM; pH 7.4; 0.15 M NaCl, and the tritium activity was measured by means of a [formula]-counter.
For a pre-assay for inhibitory activity, the substances were dissolved in DMSO (stock solution c=1 mg/ml), and tested as a 10^−1, 10^−2, 10^−3, etc., dilution in DMSO.
To determine IC50 values, the inhibitor stock solutions were diluted further in Tris-HCl buffer, 50 mM, pH 8, and tested in suitable concentrations.
The concentration corresponding to a 50% enzyme inhibition was determined from a plot of RT activity versus log Clnh.

SMILES	T-cell culture assay MIC (HIV) [µg/mL]	Reverse Transcriptase Assay IC50 [1]	melting point [°C]	MIC (HIV; Human immunodeficiency virus 1, 72 h) [µg/mL]	IC50 [1] [nM]
CC(C)OC(=O)N1c2cc(Cl)ccc2NC(=O)C1C (stereo not drawn) [Example 11-11]	0.01	0.1 to 1 µg/mL	–	–	–
CCC1C(=O)Nc2ccc(Cl)cc2N1CC=C(C)C (stereo not drawn) [Example 3-29]	<0.4	0.1 to 1 µg/mL	–	–	–
CC1C(=O)Nc2ccc(Cl)cc2N1Cc1cccc(Cl)c1 (stereo not drawn) [Example 10-20]	<0.8	0.1 to 1 µg/mL	–	–	–
C=C(C)OC(=O)N1c2cc(Cl)ccc2NC(=O)C1C(C)CC (stereo not drawn) [Example 3-81]	0.08	approx. 1 μg/ml	–	–	–
C[C@H]1Nc2cc(Cl)ccc2NC1=O [Example IC, (3R)-6-Chloro-3-methyl-3,4-dihydroquinoxalin-2(1H)-one]	–	–	123 to 124	–	–
C[C@H]1C(=O)Nc2ccc(Cl)cc2N1C(=O)Oc1ccc(Cl)cc1 [Example XI, (3S)-6-Chloro-4-N-(4-chlorophenoxycarbonyl)-3-methyl-3,4-dihydroquinoxalin-2(1H)-one]	–	–	185 to 188	–	–
C=CCOC(=O)N1c2cc(Cl)ccc2NC(=O)C1CC (stereo not drawn) [Example 3-32]	<0.4	approx. 0.1 μg/ml	–	–	–
CC(C)=CCN1c2cccc(C)c2NC(=O)C1(C)C [Example 6-16]	<0.8	approx. 1 μg/ml	–	–	–
C[C@H]1C(=O)Nc2ccc(Cl)cc2N1C(=O)Cl [Example XXXV, (3S)-6-Chloro-4-N-chlorocarbonyl-3-methyl-3,4-dihydroquinoxalin-2(1H)-one]	–	–	142 to 144	–	–
CCOC(=O)N1c2cc(Cl)ccc2NC(=O)C1C (stereo not drawn) [Example 3-23]	0.08	0.1 to 1 µg/mL	–	–	–
CC(C)=CCN1c2ccc(C)c(C)c2NC(=O)C1(C)C [Example 6-27]	<0.4	approx. 1 μg/ml	–	–	–
CC(C)=CCN1c2ccccc2NC(=S)C1C (racemic) [Example 7-1, (3RS)-3-Methyl-4-N-(3-methyl-2-buten-1-yl)-3,4-dihydroquinoxaline-2(1H)-thione]	–	–	–	< 0.16	325
CC(C)OC(=O)N1c2cc(Cl)ccc2NC(=S)C1(C)C [Example 7-22]	<0.01	0.01 to 0.1 µg/mL	–	–	–
C=C(C)OC(=O)N1c2cccc(C)c2NC(=O)C1(C)C [Example 6-17]	<0.8	0.1 to 1 µg/mL	–	–	–
CC(C)=CCN1c2cc(Cl)ccc2NC(=O)C1(C)C [Example 6-1]	0.4	approx. 1 μg/ml	–	–	–
C=CCOC(=O)N1c2cc(Cl)ccc2NC(=S)C1C (stereo not drawn) [Example 7-10]	<0.04	0.11 µg/mL	–	–	–
CC1C(=O)Nc2ccc(Cl)cc2N1Cc1c(Cl)cccc1Cl (stereo not drawn) [Example 10-27]	0.8	0.1 to 1 µg/mL	–	–	–
CC1C(=S)Nc2ccc(Cl)cc2N1Cc1ccccc1 (stereo not drawn) [Example 7-3]	<0.01	0.07 µg/mL	–	–	–
CCCOC(=O)N1c2cc(Cl)ccc2NC(=O)C1C (stereo not drawn) [Example 3-24]	0.08	0.1 to 1 µg/mL	–	–	–
CC1C(=O)Nc2ccc(Cl)cc2N1Cc1cccc([N+](=O)[O-])c1 (stereo not drawn) [Example 10-17]	0.8	approx. 1 μg/ml	–	–	–
CC(C)=CCN1c2cc(Cl)ccc2NC(=S)C1(C)C [Example 7-7]	0.04	0.1 µg/mL	–	–	–

SMILES	T-cell culture assay MIC (HIV) [µg/mL]	Reverse Transcriptase Assay IC50 [1]	melting point [°C]	MIC (HIV; Human immunodeficiency virus 1, 72 h) [µg/mL]	IC50 [1] [nM]
C=C(C)OC(=O)N1c2cc(Cl)ccc2NC(=S)C1(C)C [Example 7-11]	<0.01	0.01 µg/mL	–	–	–
C=C(C)OC(=O)N1c2ccc(C)c(C)c2NC(=O)C1(C)C [Example 6-35]	<0.08	0.1 to 1 µg/mL	–	–	–
C=C(C)OC(=O)N1c2cc(Cl)ccc2NC(=O)C1CSC (stereo not drawn) [Example 3-76]	<0.08	0.018 µg/mL	–	–	–
CC1(C)Nc2cc(Cl)ccc2NC1=S [Example 7-13]	<0.08	0.1 to 1 µg/mL	–	–	–
CC(C)=CCN1c2cc(Cl)ccc2NC(=S)C1C (stereo not drawn) [Example 7-2]	<0.01	0.07 µg/mL	–	–	–
CC(C)=CCN1c2cc(Cl)ccc2NC(=O)C1C (racemic) [VI-C, (3RS)-6-Chloro-3-methyl-4-N-(3-methyl-2-buten-1-yI)-3,4-dihydroquinoxalin-2(1H)-one]	<0.8	0.8 µg/mL	–	–	–
CSCC1C(=O)Nc2ccc(Cl)cc2N1CC=C(C)C (stereo not drawn) [Example 3-75]	<0.8	0.1 to 1 µg/mL	–	–	–
CC1C(=O)Nc2ccc(Cl)cc2N1Cc1cc(Cl)cc(Cl)c1 (stereo not drawn) [Example 10-28]	<0.8	0.1 to 1 µg/mL	–	–	–
C=C(C)OC(=O)N1c2cc(Cl)ccc2NC(=S)C1CSC (stereo not drawn) [Example 7-23]	<0.01	0.01 to 0.1 µg/mL	–	–	–
C#CCN1c2cc(Cl)ccc2NC(=O)C1C (stereo not drawn) [Example 10-9]	<0.8	approx. 1 μg/ml	–	–	–
CC(C)=CCN1c2cc(C)c(C)cc2NC(=S)C1(C)C [Example 7-16]	0.4	approx. 1 μg/ml	–	–	–
CC1C(=O)Nc2ccc(Cl)cc2N1Cc1ccccn1 (stereo not drawn) [Example 10-10]	0.08	approx. 1 μg/ml	–	–	–
C=C(C)OC(=O)N1c2ccc(Cl)cc2NC(=S)C1(C)C [Example 7-12]	<0.8	approx. 1 μg/ml	–	–	–
C=C(C)OC(=O)N1c2cc(Cl)ccc2NC(=O)[C@@H]1C [Example XIII, (3S)-6-Chloro-N-(isopropenyloxycarbonyl)-3-methyl-3,4-dihydroquinoxalin-2(1H)-one]	<0.16	0.04 µg/mL	–	–	–
C=C(C)OC(=O)N1c2cc(Cl)ccc2NC(=S)C1CC (stereo not drawn) [Example 7-14]	<0.08	0.01 to 0.1 µg/mL	–	–	–
C=C(C)OC(=O)N1c2cc(Cl)ccc2NC(=O)C1CC(C)C (stereo not drawn) [Example 3-49]	<0.8	approx. 1 μg/ml	–	–	–
CC1C(=O)Nc2ccc(Cl)cc2N1Cc1ccccc1Cl (stereo not drawn) [Example 10-21]	<0.8	0.1 to 1 µg/mL	–	–	–
CC1C(=O)Nc2ccc(Cl)cc2N1Cc1ccccc1[N+](=O)[O-] (stereo not drawn) [Example 10-18]	<0.8	0.1 to 1 µg/mL	–	–	–
C=C(C)OC(=O)N1c2ccc(Cl)cc2NC(=O)C1C(C)C (stereo not drawn) [Example 3-57]	<0.8	approx. 1 μg/ml	–	–	–
CCCCOC(=O)N1c2cc(Cl)ccc2NC(=O)C1C (stereo not drawn) [Example 3-25]	0.4	0.1 to 1 µg/mL	–	–	–
CC1C(=O)Nc2ccc(Cl)cc2N1Cc1ccco1 (stereo not drawn) [Example 10-13]	0.08	approx. 1 μg/ml	–	–	–
